In brackets after ≈: the same amount, converted by molar mass. Entries after “also recorded” stand apart in the source; their conditions may differ.
Legend:
[1] = tested on: VRE harboring the S83I mutation (GyrA); assay: microbe, parasite or virus in culture; type: cell-based; conditions: Enterococcus
[2] = tested on: S. aureus ATCC 29213 derived strains; assay: Resistant mutant generation (resistance frequency); conditions: development of DNM resistance in high level CIP resistant strains
Procedure: Agar plates (15 cm) were prepared containing MH broth and antibacterial compounds at concentrations detailed in the FIG. 10. 40 mL of an overnight bacterial culture was centrifuged at 3000×g for 10 min and resuspended in 0.4 mL of sterile PBS. Plates were inoculated with 100 μL of bacteria in PBS by spreading with beads. […] To determine the number of viable colonies spread onto each plate, dilutions of the overnight culture in sterile PBS were spread onto nonselective MH agar plates and plates were incubated overnight at 37° C. before counting colonies.

[3] = tested on: VRE with the S83R mutation (GyrA); assay: microbe, parasite or virus in culture; type: cell-based; conditions: Enterococcus
[4] = tested on: MRSA clinical isolate SAU.846; assay: MIC, microdilution broth; type: cell-based, S. aureus; conditions: Staphylococcus aureus, MRSA, read-out: MIC
Procedure: (§1) Susceptibility testing was performed in triplicate using the microdilution broth method as outlined by the Clinical and Laboratory Standards Institute CLSI^52. MH broth was used.

[5] = tested on: normal (i.e. non-cancerous) cell lines; conditions: cited from earlier work
E. coli MG1655 = assay: microbe, parasite or virus in culture; type: cell-based; conditions: Escherichia coli, gyrA none, parC none
Procedure: E. coli MG1655 and the ΔAcrB strain were obtained from Prof. Cari Vanderpool at UIUC.
as §1

human topoisomerase II = molecular target: T1, human topoisomerase II (Homo sapiens, UniProt P11388); assay: Human topoisomerase decatenation assay; type: biochemical; conditions: lowest inhibiting / highest without significant inhibition
T1 construct: purchased Inspiralis
T1 sequence (P11388 whole entry): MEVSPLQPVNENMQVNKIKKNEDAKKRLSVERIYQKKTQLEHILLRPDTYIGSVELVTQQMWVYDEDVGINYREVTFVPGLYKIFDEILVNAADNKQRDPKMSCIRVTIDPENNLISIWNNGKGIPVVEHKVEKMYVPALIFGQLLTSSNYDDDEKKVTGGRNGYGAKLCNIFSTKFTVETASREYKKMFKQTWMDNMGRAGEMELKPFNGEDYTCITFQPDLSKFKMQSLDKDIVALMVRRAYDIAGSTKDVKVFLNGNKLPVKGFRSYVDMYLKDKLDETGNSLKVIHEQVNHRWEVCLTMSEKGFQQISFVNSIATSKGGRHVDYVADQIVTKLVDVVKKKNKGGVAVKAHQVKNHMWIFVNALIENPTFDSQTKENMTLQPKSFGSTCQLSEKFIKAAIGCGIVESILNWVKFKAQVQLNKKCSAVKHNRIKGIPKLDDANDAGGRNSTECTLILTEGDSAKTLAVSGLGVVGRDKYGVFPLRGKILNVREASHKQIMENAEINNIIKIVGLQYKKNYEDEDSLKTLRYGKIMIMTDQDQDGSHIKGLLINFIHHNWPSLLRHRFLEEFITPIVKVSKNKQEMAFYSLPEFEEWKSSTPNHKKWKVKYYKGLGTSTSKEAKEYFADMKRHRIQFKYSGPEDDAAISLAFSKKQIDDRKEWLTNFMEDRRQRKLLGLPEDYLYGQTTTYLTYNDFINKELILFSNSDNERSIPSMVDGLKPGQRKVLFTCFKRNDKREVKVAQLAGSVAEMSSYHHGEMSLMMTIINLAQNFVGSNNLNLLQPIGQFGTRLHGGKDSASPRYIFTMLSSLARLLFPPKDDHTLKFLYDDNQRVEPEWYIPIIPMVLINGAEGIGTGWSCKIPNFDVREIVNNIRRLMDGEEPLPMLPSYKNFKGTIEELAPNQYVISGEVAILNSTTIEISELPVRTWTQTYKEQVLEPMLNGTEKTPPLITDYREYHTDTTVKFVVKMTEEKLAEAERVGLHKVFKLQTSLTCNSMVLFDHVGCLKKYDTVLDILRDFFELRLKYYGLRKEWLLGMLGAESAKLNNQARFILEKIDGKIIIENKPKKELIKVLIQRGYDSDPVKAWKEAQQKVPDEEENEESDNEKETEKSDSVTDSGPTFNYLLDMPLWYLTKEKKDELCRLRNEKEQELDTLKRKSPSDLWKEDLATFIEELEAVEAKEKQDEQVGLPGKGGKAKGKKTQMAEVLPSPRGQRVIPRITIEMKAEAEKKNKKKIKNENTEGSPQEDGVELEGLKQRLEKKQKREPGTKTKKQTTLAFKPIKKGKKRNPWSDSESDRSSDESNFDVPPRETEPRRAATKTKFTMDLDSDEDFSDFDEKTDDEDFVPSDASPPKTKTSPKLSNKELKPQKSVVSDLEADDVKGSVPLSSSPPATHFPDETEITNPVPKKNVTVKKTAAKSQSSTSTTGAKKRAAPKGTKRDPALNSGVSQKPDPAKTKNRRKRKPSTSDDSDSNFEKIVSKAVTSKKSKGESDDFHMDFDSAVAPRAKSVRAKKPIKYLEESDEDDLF
Procedure: The decatenation assay was performed with the Human Topo II Decatenation Assay Kit (Inspiralis) according to the manufacturer's instructions with minor modifications. First, a master mix was made containing 2 μL 10× assay buffer (500 mM Tris.HCl, pH 7.5, 1250 mM NaCl, 100 mM MgCl2, 50 mM DTT, 1000 μg/mL albumin), 0.67 μL 30 mM ATP, 1.34 μL 0.1 ng/μL kDNA, and 14.3 μL of nuclease free water per sample is made. DMSO or 30× compound is added to a 0.5 mL Eppendorf tube (0.67 μL per tube). The master mix is then added to each tube (18.3 μL per tube). Finally, 1 U of human topoisomerase (1 μL of 1 U/μL stock) is added to each tube for a final volume of 20 μL. The tubes are then incubated at 37° C. for 30 min. Reactions are stopped by the addition of 20 μL of 24:1 chloroform:isoamyl alcohol and 20 μL of stop dye (40% sucrose, 1 mM EDTA, 100 mM TrisHCl pH 7.5, 0.5 μg/mL bromophenol blue). Samples were run on 1% agarose gels containing 0.5 μg/mL ethidium bromide for 1 h at 110V or until the dye front was approximately halfway down the gel. Gels were imaged on a Molecular Imager Gel Doc XR+ (Biorad).

[6] = tested on: MRSA clinical isolate SAU.3024; assay: MIC, microdilution broth; type: cell-based, S. aureus; conditions: Staphylococcus aureus
Procedure: as §1

FQR MRSA (NRS3) = assay: Mouse sepsis model, survival; conditions: 50 mg kg^−1 oral gavage once-a-day 10 days; vs CIP and vehicle, P<0.005

For Cc1cc(=O)n(C)c2c3c4c(cc12)c(C)cc(=O)n4CO3 [DNM, deoxynybomycin], the MIC [1] was 0.125 to 1 mg/L (≈ 0.443 to 3.54 µM), the resistance frequency [2] was 1×10^−10 to 7×10^−10 and the MIC [3] was at least 1 mg/L. For the same compound, the MIC [4] was 0.031 mg/L (≈ 0.11 µM) and the “toxicity to normal cell lines” value [5] was “non-toxic”.
With CCn1c(=O)cc(C)c2cc3c(C)cc(=O)n4c3c(c21)OC4 [DNM-2] the MIC (E. coli MG1655) was over 24 mg/L, the “concentration inhibiting human topoisomerase II” value (human topoisomerase II) was over 30 µM and the MIC [6] was 0.125 mg/L (≈ 0.422 µM). The “survival of mice infected with FQR MRSA (NRS3)” value (FQR MRSA (NRS3)) was “significant survival difference; also recorded: effective”.

From US9920069B2, “Compounds for treatment of fluoroquinolone-resistant bacteria” (The Board of Trustees of the University of Illinois, priority 2014, dated 2018)
